These results are taken from patent publication US11229620B2, “3-methanesulfonylpropionitrile for treating inflammation and/or pain” (OLATEC THERAPEUTICS LLC, priority 2010, dated 2022).

In one series the test system is IL-4. In words: In vitro cytokine release from human PBMCs: IL-4. The class given is cell-based. Particulars: PBMC, ConA 20 μg/mL, 24 hours, read-out: inhibited the release of IL-4. How it is done:
(§1) 3-methanesulfonylpropionitrile (MSPN, prepared according to Example 1 was tested for its effects on in vitro cytokine release from human peripheral blood mononuclear cells (PBMCs). Secretion of cytokines by PBMCs plays a significant role in the inflammatory response.
(§2) MSPN was added to cultures of fresh human PBMCs at 162 μM (22 μg/mL) in duplicate. One hour later, PBMCs were stimulated to secrete cytokines using the mitogens lipopolysaccharide and concanavalin A (ConA). Lipopolysaccharide at 50 pg/mL was used to stimulate the release of interleukin IL-1β, IL-6 and tumor necrosis factor TNFα. ConA at 20 μg/mL was used to stimulate the release of IL-4 and ConA at 5 μg/mL was used to stimulate interferon IFNγ. The corticosteroid dexamethasone (100 nM) was used as a positive control. After 24 hours of incubation, the supernatants were assayed for the cytokines using the Luminex Bead kit. MSPN at 22 μg/mL inhibited the release of IL-1β, IL-6, TNFα, IL-4 and IFNγ by 95%, 98%, 98%, 7% and 21%, respectively. Dexamethasone inhibited the release of IL-1β, IL-6, TNFα, IL-4 and IFNγ by 24%, 60%, 42%, 93% and 87%, respectively.

A further series has as its system TNFα. As to the kind of experiment: In vitro cytokine release from human PBMCs: TNFα. The conditions noted are these: PBMC, lipopolysaccharide 50 pg/mL, 24 hours, read-out: inhibited the release of TNFα. The class given is cell-based. As for the experimental part:
as §1, §2

The next series concerns IL-6. As to the kind of experiment: In vitro cytokine release from human PBMCs: IL-6. It counts as cell-based. Particulars: PBMC, lipopolysaccharide 50 pg/mL, 24 hours, read-out: inhibited the release of IL-6. How it is done:
as §1, §2

The subject of the next series is IL-1β. In words: In vitro cytokine release from human PBMCs: IL-1β. The conditions noted are these: PBMC, lipopolysaccharide 50 pg/mL, 24 hours, read-out: inhibited the release of IL-1β. The class given is cell-based. How it is done:
as §1, §2

The test system of the next series is IFNγ. In words: In vitro cytokine release from human PBMCs: IFNγ. It counts as cell-based. The conditions noted are these: PBMC, ConA 5 μg/mL, 24 hours, read-out: inhibited the release of IFNγ. As for the experimental part:
as §1, §2

A short description of series [1]: Systemic (plasma) exposure of MSPN after oral and subcutaneous administration to rats. It counts as in vivo. The conditions noted are these: after both the oral and subcutaneous routes. As for the experimental part: This study was done to determine the systemic (plasma) exposure of MSPN after administration by the oral and subcutaneous routes to rats.
MSPN substance was prepared in water for oral administration and in saline for subcutaneous administration. Rats weighed 282 to 295 g were used in the study. Male rats (n=2) were given a single dose at 50, 160 or 500 mg/kg by both oral and subcutaneous routes. Female rats (n=2) were dosed only at 500 mg/kg by both oral and subcutaneous routes. The blood was drawn from each rat at 0.25, 1, 2, 3, 4, 6, 12, 24, and 48 hours and measured for MSPN concentration by LC/MS/MS.

Series [2] relates to arachidonic acid induced ear swelling. In words: Topical arachidonic acid induced ear swelling model in mice. It counts as in vivo. Particulars: 30 min before and 15 min after challenge, at 90 minutes. As for the experimental part:
Purified 3-methanesulfonylpropionitrile (MSPN, prepared according to Example 2) was dissolved in vehicle (ethanol/acetone 1:1) to 5% (w/v). The active compound, indomethacin (positive control in vehicle), and vehicle were evaluated for anti-inflammatory activity in the topical arachidonic acid induced ear swelling model in mice.
Male ICR derived mice weighing 22±2 g were used in this experiment. 5 mice were used for each group (active compound, positive control, and vehicle). All animals were maintained in a controlled temperature (22-24° C.) and humidity (60%-70%) environment with 12-hour light/dark cycles for at least one week prior to use.
Arachidonic acid (2 mg in 20 μL acetone) was applied topically onto the anterior and posterior surfaces of the right ear of test animals to induce inflammation. MSPN in vehicle (20 μL), indomethacin (0.3 mg) in vehicle, and vehicle (20 μL) was each applied 30 minutes before and 15 minutes after arachidonic acid challenge. At 90 minutes after arachidonic acid induction of ear edema, the thickness of the right ear and the left ear was measured and the difference calculated as an indication of the inflammation in the right ear. Significant activity is defined as a reduction (inhibition) in arachidonic acid induced ear swelling by ≥30% relative to the vehicle-treated group.

Series [3] is described as follows: Oral systemic toxicity administration in rats. It counts as in vivo.
The nature of series [4]: Storage stability of the isolated product at room temperature. The class given is physicochemical. Particulars: oil or solid form, enclosed vessel, room temperature (22-28° C.). The text has this: In a preferred embodiment, the water-immiscible organic solvent is ethyl acetate. After the aqueous phase is removed, the ethyl acetate solvent is removed from the product by any means known to a person skilled in the art. For example, the ethyl acetate solvent can be removed by evaporation such as rotary evaporation or drying under nitrogen gas. After the ethyl acetate solvent is removed, the product 3-methanesulfonylpropionitrile is obtained in an oil form or in a solid form, which is stored in an enclosed vessel (such as a capped vial or bottle) and is stable for at least 1-3 months at room temperature (22-28° C.).

Series [5] in a line: Oral systemic toxicity administration in dogs. The class given is in vivo.

In the case of `C[C@@H]1C[C@H]2[C@@H]3CCC4=CC(=O)C=C[C@]4(C)[C@@]3(F)[C@@H](O)C[C@]2(C)[C@@]1(O)C(=O)CO` [Dexamethasone, dexamethasone, reference compound], the inhibition at 0.1 µM in the series with IL-4 (dexamethasone 100 nM) was found to be 93%; in the series on TNFα (dexamethasone 100 nM), 42%; in the series on IL-6 (dexamethasone 100 nM) it was 60%; in the series with IL-1β (dexamethasone 100 nM) it was 24%; in the series with IFNγ (dexamethasone 100 nM) it was 87%.
Turning to `CS(=O)(=O)CCC#N` [MSPN, 3-methanesulfonylpropionitrile], the inhibition at 162 µM with IL-4 (MSPN at 22 μg/mL (162 μM)) is 7%; in the series on TNFα (MSPN at 22 μg/mL (162 μM)), 98%; in the series on IL-6 (MSPN at 22 μg/mL (162 μM)), 98%; with IL-1β (MSPN at 22 μg/mL (162 μM)) it was 95%; in the series with IFNγ (MSPN at 22 μg/mL (162 μM)) it was 21%. Besides, the bioavailability result in series [1] was “significant bioavailability”. For the same compound, the “decrease in the ear swelling induced by arachidonic acid relative to vehicle-treated group” value in [2] (5% (w/v) in ethanol/acetone 1:1, 20 μL topical) is 31%. For the same compound, the “effects seen after oral, systemic toxicity administration” value is “mild physiological effects including decreased body temperature, decreased respiratory rate, increased blood pressure and increased heart rate” in [3] (rat, in vivo, po); “mild physiological effects including decreased body temperature, decreased respiratory rate, increased blood pressure and increased heart rate” in [5] (dog, in vivo, po). Also, the “doses at which effects were seen, above expected human therapeutic doses” value in [3] (rats, oral) is “over 2000 fold”; in series [5] (dogs, oral), “over 2000 fold”. For the same compound, the stable on storage in series [4] is 1-3 months.
`COc1ccc2c(c1)c(CC(=O)O)c(C)n2C(=O)c1ccc(Cl)cc1` [indomethacin, reference compound]: the “decrease in the ear swelling induced by arachidonic acid relative to vehicle-treated group” value in [2] (0.3 mg in vehicle topical) came out at 60%.
